Reference: patent US5561135A, “N,N,N',N'-tetrasubstituted-1,2-ethanediamine derivative compounds” (Ferrer Internacional, S.A., priority 1993, dated 1996)
Structures can show the parent of a compound that is named as a salt.

Assays:
[1] = target: T1, σ receptors (Cavia porcellus, UniProt Q60492); test: Specific binding to σ receptors, (+)[^3 H]3-PPP displacement; set-up: species or system guinea-pig; conditions: for IC50: guinea-pig total brain membrane, 2 nM (+)[^3 H]3-PPP, 90 min, 25° C., pH 8.5
T1 construct: membrane corresponding to 40 mg of guinea-pig total brain; from tissue; host or cells: guinea-pig total brain membranes
T1 sequence (Q60492 whole entry): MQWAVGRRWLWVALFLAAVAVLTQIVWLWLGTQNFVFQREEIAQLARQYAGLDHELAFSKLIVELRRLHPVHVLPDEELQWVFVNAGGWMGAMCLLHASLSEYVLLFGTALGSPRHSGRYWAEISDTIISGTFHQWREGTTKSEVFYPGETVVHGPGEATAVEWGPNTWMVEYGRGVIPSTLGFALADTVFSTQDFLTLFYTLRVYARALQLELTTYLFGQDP
Description: (§1) Thus, total binding of ligand to membranes was attained. Non-specific binding was then determined by adding a micromolar concentration of unlabelled 3-PPP.

[2] = target: D2 receptors (Rattus norvegicus, UniProt P61169); test: Specific binding to D2 receptors, [^3 H]spiperone displacement
Sequence of D2 receptors (P61169 whole entry): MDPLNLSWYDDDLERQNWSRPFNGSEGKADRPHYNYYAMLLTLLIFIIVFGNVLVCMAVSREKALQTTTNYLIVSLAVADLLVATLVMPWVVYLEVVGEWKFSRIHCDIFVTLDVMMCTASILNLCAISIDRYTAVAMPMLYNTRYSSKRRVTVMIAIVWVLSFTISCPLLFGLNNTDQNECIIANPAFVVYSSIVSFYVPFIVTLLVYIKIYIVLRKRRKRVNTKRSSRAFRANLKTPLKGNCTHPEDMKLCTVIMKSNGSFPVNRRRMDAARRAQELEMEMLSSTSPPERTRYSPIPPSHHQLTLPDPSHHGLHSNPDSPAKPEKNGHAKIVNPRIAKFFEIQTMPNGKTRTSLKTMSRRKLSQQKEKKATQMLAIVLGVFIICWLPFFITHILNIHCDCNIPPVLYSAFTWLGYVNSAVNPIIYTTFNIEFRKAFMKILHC

[3] = system: σ receptors; conditions: B. L. Largent et al, Eur. J. Pharmacol., 155, 345-7, 1988; cited from earlier work
[4] = in vivo
[5] = system: Male Sprague-Dawley rats; test: Stereotypy inhibition test (apomorphine, rats); format: in vivo; conditions: Rattus norvegicus, ip; intraperitoneal; apomorphine 1.5 mg/kg subcutaneously after 30 min; scored 40-120 min
Description: Stereotypy inhibition test: Male Sprague-Dawley rats, weighing 200-300 g were used. The animals were weighed and then placed in individual transparent boxes. At time 0 the compounds to be tested were administered intraperitoneally. 0.25% agar was used as vehicle. […] At 40, 50, 60, 90 and 120 min, stereotypy was scored from (-) to (+++) according to the following criteria: (-) absence of stereotypy or any abnormal movement; (+) presence of slight stereotyped movements of the head and intermittent sniffing; (++) intense movements of the head, mild licking interspersed with sniffing; and (+++) intense licking and/or gnawing. Results are expressed as ED50 in mg/kg for a better quantification.

[6] = Irwin test (behavioural and neurological undesirable effects); conditions: observed at first dose causing undesirable effects
[7] = system: σ receptors; test: Specific binding to σ receptors, (+)[^3 H]3-PPP displacement; set-up: species or system guinea-pig
Description: as §1

| SMILES | IC50 [1] | IC50 [2] | other results |
| --- | --- | --- | --- |
| CN(CCCC(c1ccc(F)cc1)c1ccc(F)cc1)CCN(C)Cc1ccc(F)cc1 [Example 9, N-(4,4-bis(p-fluorophnyl)butyl)-N,N'-dimethyl-N'-(p-fluorobenzyl)-1,2-ethanediamine dihydrochloride] | 83 nM | 2350 nM |  |
| O=C(CCCN1CCC(O)(c2ccc(Cl)cc2)CC1)c1ccc(F)cc1 [Haloperidol] |  |  | Receptor action (literature, in words) [3]: acts on both σ and D2 receptors; First dose causing behavioural and neurological undesirable effects [4]: 10 mg/kg; ED50 [5]: 0.4 mg/kg; Side effects [6]: Hypothermia, Catalepsy. |
| CN(CCCC(=O)c1ccc(F)cc1)CCN(C)c1ncccn1 [Example 12, 1-(p-fluorophenyl)-4-[N-[2-(N'-(2-pyrimidinyl)-N'-methyl-amino)ethyl]-N-methylamino]-1-butanone disulphate] | 14.6 nM | 1500 nM | Relative selectivity ([7]; D2 /σ ratio relative to Haloperidol): 21.5; Selectivity D2 /σ ([7]; ratio of IC50 D2 (rat striatum) to IC50 σ (guinea-pig brain)): 103 |
| CN(CCCC(O)c1ccc(F)cc1)CCN(C)Cc1ccccc1 (centres unmarked) [Example 6, 4-[N-(2-(N'-benzyl, N'-methylamino)ethyl) -N-methylamino]-1-(p-fluorophenyl)-1-butanol dihydrochloride] | 29 nM | 81800 nM |  |

Now from value to molecule, other results behind:

| IC50 [1] | IC50 [2] | SMILES | other results |
| --- | --- | --- | --- |
| 2.79 nM | 7810 nM | CN(CCCC(O)c1ccc(F)cc1)CCN(C)Cc1ccc(F)cc1 (centres unmarked) [Example 8, 1-(p-fluorophenyl)-4-[N-(2-(N'-(p-fluorobenzyl)-N'-methylamino)ethyl)-N-methanlamino]-1-butanol dihydrochloride] |  |
| 0.52 nM | 678 nM | CN(CCCC(=O)c1ccc(F)cc1)CCN(C)Cc1ccc(F)cc1 [Example 7, 1-(p-fluorophenyl)-4-[N-(2-(N'-(p-fluorobenzyl)-N'-methylamino)ethyl)-N-methylamino]-1-butanone dihydrochloride] | Binding to σ receptors (in words) [1]: more potent than Haloperidol; Activity on D2 receptors (in words) [2]: poorly active on D2 receptors |
| 2.01 nM | 410 nM | CN(CCCC(=O)c1ccc(F)cc1)CCN(C)Cc1ccccc1 [Example 5, 4-[N-(2-(N'-benzyl,N'-methylamino)ethyl)-N-methylamino]-1-(p-fluorophenyl)-1-butanone dihydrochloride] |  |
